In US20060264460A1 (Wyeth, priority 2005, published 2006):

target: T1, human Cot/Tpl2 kinase (Homo sapiens, UniProt P41279); assay: Tpl2/Cot kinase assay: GST-MEK1 phosphorylation detected by ELISA (DELFIA Eu); assay type: biochemical; conditions: 0.4 nM Tpl2, 35 nM GST-MEK1, 50 uM ATP, 1 h at 30° C.
T1 construct: human Cot/Tpl2 kinase construct encoding residues 30-398; 6His (N); made in house; host or cells: Sf9 insect cells, baculovirus system (BD Biosciences)
In short: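 His-tagged human Tpl2 from Sf9 cells, Ni-affinity and size-exclusion purified (monomer). 0.4 nM Tpl2 with 35 nM GST-MEK1, 50 uM ATP, MOPS pH 7.2, 1% DMSO, 1 h at 30° C; EDTA stop. MEK1 Ser217/221 phosphorylation detected by anti-phospho-MEK1 and Eu-labelled secondary ELISA; IC50 fitted.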

T1 sequence (P41279 30-398): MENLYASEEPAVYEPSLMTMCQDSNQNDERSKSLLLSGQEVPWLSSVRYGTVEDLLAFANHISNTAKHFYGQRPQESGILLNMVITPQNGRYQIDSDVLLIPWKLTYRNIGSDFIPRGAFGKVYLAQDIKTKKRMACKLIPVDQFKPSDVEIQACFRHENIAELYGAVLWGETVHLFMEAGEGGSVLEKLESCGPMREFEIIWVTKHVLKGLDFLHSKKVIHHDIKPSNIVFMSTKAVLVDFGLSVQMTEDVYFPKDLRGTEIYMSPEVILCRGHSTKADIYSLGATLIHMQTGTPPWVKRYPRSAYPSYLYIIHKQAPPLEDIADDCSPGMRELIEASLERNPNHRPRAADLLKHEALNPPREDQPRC

Structure (SMILES) | IC50
N#Cc1cnc2c(Cl)cc(NCCn3ccnc3)cc2c1Nc1ccc(F)c(Cl)c1 [Example 212, 8-chloro-4-[(3-chloro-4-fluorophenyl)amino]-6-{[2-(1H-imidazol-1-yl)ethyl]amino}quinoline-3-carbonitrile] | 400 nM
N#Cc1cnc2c(Cl)cc(NCCn3cc(CCO)nn3)cc2c1Nc1ccc(F)c(Cl)c1 [Example 213, 8-chloro-4-[(3-chloro-4-fluorophenyl)amino]-6-({2-[4-(2-hydroxyethyl)-1H-1,2,3-triazol-1-yl]ethyl}amino)quinoline-3-carbonitrile] | 1500 nM
N#Cc1cnc2c(Cl)cc(NCc3cn(CS(=O)(=O)N4CCOCC4)nn3)cc2c1Nc1ccc(F)c(Cl)c1 [Example 224, 8-chloro-4-(3-chloro-4-fluorophenylamino)-6-((1-(morpholinosulfonylmethyl)-1H-1,2,3-triazol-4-yl)methylamino)quinoline-3-carbonitrile] | 280 nM
Cc1cc2ncc(C#N)c(Nc3ccc(F)c(Cl)c3)c2cc1NCc1cccnc1 [Example 225, 4-[(3-Chloro-4-fluorophenyl)amino]-7-methyl-6-[(pyridin-3-ylmethyl)amino]quinoline-3-carbonitrile] | > 40000 nM
Cc1cc2ncc(C#N)c(Nc3ccc(F)c(Cl)c3)c2cc1NCc1cnc[nH]1 [Example 226, 4-[(3-chloro-4-fluorophenyl)amino]-6-[(1H-imidazol-5-ylmethyl)amino]-7-methylquinoline-3-carbonitrile] | > 40000 nM
Cc1cc2ncc(C#N)c(Nc3ccc(F)c(Cl)c3)c2cc1NCCN1CCOCC1 [Example 227, 4-[(3-chloro-4-fluorophenyl)amino]-7-methyl-6-[(2-morpholin-4-ylethyl)amino]quinoline-3-carbonitrile] | > 40000 nM
N#Cc1cnc2ccc(NCc3c[nH]c(=O)[nH]c3=O)cc2c1Nc1ccc(F)c(Cl)c1 [Example 228, 4-[(3-chloro-4-fluorophenyl)amino]-6-{[(2,4-dioxo-1,2,3,4-tetrahydropyrimidin-5-yl)methyl]amino}quinoline-3-carbonitrile] | 480 nM
N#Cc1cnc2c(C(F)(F)F)cc(NCc3cccnc3)cc2c1Nc1ccc(F)c(Cl)c1 [Example 230, 4-[(3-chloro-4-fluorophenyl)amino]-6-[(pyridin-3-ylmethyl)amino]-8-(trifluoromethyl)quinoline-3-carbonitrile] | > 40000 nM
N#Cc1cnc2c(C(F)(F)F)cc(NCc3ccccn3)cc2c1Nc1ccc(F)c(Cl)c1 [Example 231, 4-[(3-chloro-4-fluorophenyl)amino]-6-[(pyridin-2-ylmethyl)amino]-8-(trifluoromethyl)quinoline-3-carbonitrile] | 19700 nM
N#Cc1cccc(CNc2cc(C(F)(F)F)c3ncc(C#N)c(Nc4ccc(F)c(Cl)c4)c3c2)c1 [Example 232, 4-[(3-chloro-4-fluorophenyl)amino]-6-[(3-cyanobenzyl)amino]-8-(trifluoromethyl)quinoline-3-carbonitrile] | 24000 nM
N#Cc1ccccc1CNc1cc(C(F)(F)F)c2ncc(C#N)c(Nc3ccc(F)c(Cl)c3)c2c1 [Example 233, 4-[(3-chloro-4-fluorophenyl)amino]-6-[(2-cyanobenzyl)amino]-8-(trifluoromethyl)quinoline-3-carbonitrile] | > 40000 nM
N#Cc1ccc(CNc2cc(C(F)(F)F)c3ncc(C#N)c(Nc4ccc(F)c(Cl)c4)c3c2)cc1 [Example 234, 4-[(3-chloro-4-fluorophenyl)amino]-6-[(4-cyanobenzyl)amino]-8-(trifluoromethyl)quinoline-3-carbonitrile] | 15100 nM
N#Cc1cnc2c(C(F)(F)F)cc(NCc3ccccc3F)cc2c1Nc1ccc(F)c(Cl)c1 [Example 235, 4-[(3-chloro-4-fluorophenyl)amino]-6-[(2-fluorobenzyl)amino]-8-(trifluoromethyl)quinoline-3-carbonitrile] | > 40000 nM
Cn1ccnc1CNc1cc(C(F)(F)F)c2ncc(C#N)c(Nc3ccc(F)c(Cl)c3)c2c1 [Example 236, 4-[(3-chloro-4-fluorophenyl)amino]-6-{[(1-methyl-1H-imidazol-2-yl)methyl]amino}-8-(trifluoromethyl)quinoline-3-carbonitrile] | 200 nM
N#Cc1cnc2c(C(F)(F)F)cc(NCc3cccn3S(=O)(=O)c3ccccc3)cc2c1Nc1ccc(F)c(Cl)c1 [Example 237, 4-[(3-chloro-4-fluorophenyl)amino]-6-({[1-(phenylsulfonyl)-1H-pyrrol-2-yl]methyl}amino)-8-(trifluoromethyl)quinoline-3-carbonitrile] | 24800 nM
Cc1cc(CNc2cc(C(F)(F)F)c3ncc(C#N)c(Nc4ccc(F)c(Cl)c4)c3c2)oc1C [Example 238, 4-[(3-chloro-4-fluorophenyl)amino]-6-{[(4,5-dimethyl-2-furyl)methyl]amino}-8-(trifluoromethyl)quinoline-3-carbonitrile] | 8400 nM
N#Cc1cnc2c(C(F)(F)F)cc(NCc3cncs3)cc2c1Nc1ccc(F)c(Cl)c1 [Example 239, 4-[(3-chloro-4-fluorophenyl)amino]-6-[(1,3-thiazol-5-ylmethyl)amino]-8-(trifluoromethyl)quinoline-3-carbonitrile] | 780 nM
COc1ncc(CNc2cc(C(F)(F)F)c3ncc(C#N)c(Nc4ccc(F)c(Cl)c4)c3c2)c(OC)n1 [Example 241] | > 40000 nM
N#Cc1cnc2c(C(F)(F)F)cc(NCc3cnc(S(=O)(=O)c4ccccc4)s3)cc2c1Nc1ccc(F)c(Cl)c1 [Example 242, 4-[(3-chloro-4-fluorophenyl)amino]-6-({[2-(phenylsulfonyl)-1,3-thiazol-5-yl]methyl}amino)-8-(trifluoromethyl)quinoline-3-carbonitrile] | > 40000 nM
N#Cc1cnc2ccc(NCc3cnc(N4CCOCC4)s3)cc2c1Nc1ccc(F)c(Cl)c1 [Example 243, 4-[(3-chloro-4-fluorophenyl)amino]-6-{[(2-morpholin-4-yl-1,3-thiazol-5-yl)methyl]amino}quinoline-3-carbonitrile] | > 40000 nM
N#Cc1cnc2c(C(F)(F)F)cc(NCc3cnc(N4CCOCC4)s3)cc2c1Nc1ccc(F)c(Cl)c1 [Example 244, 4-[(3-chloro-4-fluorophenyl)amino]-6-{[(2-morpholin-4-yl-1,3-thiazol-5-yl)methyl]amino}-8-(trifluoromethyl)quinoline-3-carbonitrile] | > 40000 nM

The next molecules have a lower IC50 than those just listed; values first:

IC50 | Structure (SMILES)
16 nM | CC(C)c1nc[nH]c1CNc1cc(Cl)c2ncc(C#N)c(Nc3ccc(F)c(Cl)c3)c2c1 [Example 214, 8-chloro-4-[(3-chloro-4-fluorophenyl)amino]-6-{[(4-isopropyl-1H-imidazol-5-yl)methyl]amino}quinoline-3-carbonitrile]
5.9 nM | N#Cc1cnc2c(Cl)cc(NCc3nnn4ccccc34)cc2c1Nc1ccc(F)c(Cl)c1 [Example 216, 6-([1,2,3]triazolo[1,5-a]pyridin-3-ylmethylamino)-8-chloro-4-(3-chloro-4-fluorophenylamino)quinoline-3-carbonitrile]
7.2 nM | Cn1cc(CNc2cc(Cl)c3ncc(C#N)c(Nc4ccc(F)c(Cl)c4)c3c2)nn1 [Example 217, 8-chloro-4-[(3-chloro-4-fluorophenyl)amino]-6-{[(1-methyl-1H-1,2,3-triazol-4-yl)methyl]amino}quinoline-3-carbonitrile]
32 nM | COCC(=O)NCCn1cc(CNc2cc(Br)c3ncc(C#N)c(Nc4ccc(F)c(Cl)c4)c3c2)nn1 [Example 218, N-(2-(4-((8-bromo-4-(3-chloro-4-fluorophenylamino)-3-cyanoquinolin-6-ylamino)methyl)-1H-1,2,3-triazol-1-yl)ethyl)-2-methoxyacetamide]
65 nM | COCC(=O)NCCn1cc(CNc2cc(Cl)c3ncc(C#N)c(Nc4ccc(F)c(Cl)c4)c3c2)nn1 [Example 219, N-(2-(4-((8-chloro-4-(3-chloro-4-fluorophenylamino)-3-cyanoquinolin-6-ylamino)methyl)-1H-1,2,3-triazol-1-yl)ethyl)-2-methoxyacetamide]
26 nM | Cn1ccnc1CNc1cc(Br)c2ncc(C#N)c(Nc3ccc(F)c(Cl)c3)c2c1 [Example 220, 8-bromo-4-[(3-chloro-4-fluorophenyl)amino]-6-{[(1-methyl-1H-imidazol-2-yl)methyl]amino}quinoline-3-carbonitrile]
28 nM | Cn1cc(CNc2cc(Br)c3ncc(C#N)c(Nc4ccc(F)c(Cl)c4)c3c2)nn1 [Example 221, 8-bromo-4-(3-chloro-4-fluorophenylamino)-6-((1-methyl-1H-1,2,3-triazol-4-yl)methylamino)quinoline-3-carbonitrile]
10 nM | N#Cc1cnc2c(Cl)cc(NCc3cn(CCN4CCOC4=O)nn3)cc2c1Nc1ccc(F)c(Cl)c1 [Example 222, 8-chloro-4-(3-chloro-4-fluorophenylamino)-6-((1-(2-(2-oxooxazolidin-3-yl)ethyl)-1H-1,2,3-triazol-4-yl)methylamino)quinoline-3-carbonitrile]
37 nM | N#Cc1cnc2c(Br)cc(NCc3cn(CCN4CCOC4=O)nn3)cc2c1Nc1ccc(F)c(Cl)c1 [Example 223, 8-bromo-4-(3-chloro-4-fluorophenylamino)-6-((1-(2-(2-oxooxazolidin-3-yl)ethyl)-1H-1,2,3-triazol-4-yl)methylamino)quinoline-3-carbonitrile]
190 nM | N#Cc1cnc2c(C(F)(F)F)cc(NCc3cnc[nH]3)cc2c1Nc1ccc(F)c(Cl)c1 [Example 229, 4-[(3-chloro-4-fluorophenyl)amino]-6-[(1H-imidazol-5-ylmethyl)amino]-8-(trifluoromethyl)quinoline-3-carbonitrile]
190 nM | N#Cc1cnc2c(C(F)(F)F)cc(NCc3cncnc3)cc2c1Nc1ccc(F)c(Cl)c1 [Example 240, 4-[(3-chloro-4-fluorophenyl)amino]-6-[(pyrimidin-5-ylmethyl)amino]-8-(trifluoromethyl)quinoline-3-carbonitrile]
